Experiment in all cases: Z'-LYTE kinase panel
What all share (format): biochemical

In assay [1] the target is T1, PASK (Homo sapiens, UniProt Q96RG2).
T1 construct: purchased ThermoFisher (SelectScreen, Z'-LYTE)
Put shortly: (§1)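 Each compound was added at 10 µM, kinase activity was then measured via the standard Z′-LYTE assay, and percentage inhibition was calculated; 225 kinases were covered.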

Assay [2] concerns the target T2, PIM1 (Homo sapiens, UniProt P11309).
T2 construct: purchased ThermoFisher (SelectScreen, Z'-LYTE)
Put shortly:
as §1

Assay [3] deals with T3, KDR (VEGFR2) (Homo sapiens, UniProt P35968).
T3 construct: purchased ThermoFisher (SelectScreen, Z'-LYTE)
Put shortly: as §1

Assay [4] concerns the target T4, NTRK2 (TRKB) (Homo sapiens, UniProt Q16620).
T4 construct: purchased ThermoFisher (SelectScreen, Z'-LYTE)
Put shortly: as §1

The target in assay [5] is T5, ITK (Homo sapiens, UniProt Q08881).
T5 construct: purchased ThermoFisher (SelectScreen, Z'-LYTE)
T5 sequence (Q08881 1-620): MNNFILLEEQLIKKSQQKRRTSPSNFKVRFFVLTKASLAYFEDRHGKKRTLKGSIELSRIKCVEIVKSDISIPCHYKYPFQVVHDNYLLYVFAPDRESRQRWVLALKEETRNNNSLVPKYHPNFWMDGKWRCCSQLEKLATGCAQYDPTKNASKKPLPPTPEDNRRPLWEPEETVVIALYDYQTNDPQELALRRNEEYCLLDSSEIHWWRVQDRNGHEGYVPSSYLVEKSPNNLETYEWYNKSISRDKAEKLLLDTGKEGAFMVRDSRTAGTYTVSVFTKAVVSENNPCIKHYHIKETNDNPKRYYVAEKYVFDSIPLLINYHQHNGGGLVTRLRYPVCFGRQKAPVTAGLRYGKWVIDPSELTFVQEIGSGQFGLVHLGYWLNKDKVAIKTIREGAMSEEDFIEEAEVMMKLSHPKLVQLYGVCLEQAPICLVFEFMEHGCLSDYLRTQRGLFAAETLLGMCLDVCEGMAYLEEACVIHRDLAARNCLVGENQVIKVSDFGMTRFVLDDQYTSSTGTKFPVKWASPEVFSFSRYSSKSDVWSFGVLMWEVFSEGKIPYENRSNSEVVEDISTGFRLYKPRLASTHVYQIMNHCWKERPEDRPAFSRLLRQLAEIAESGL
Put shortly: as §1

Assay [6] concerns the target T6, EPHB4 (Homo sapiens, UniProt P54760).
T6 construct: purchased ThermoFisher (SelectScreen, Z'-LYTE)
T6 sequence (P54760 16-987): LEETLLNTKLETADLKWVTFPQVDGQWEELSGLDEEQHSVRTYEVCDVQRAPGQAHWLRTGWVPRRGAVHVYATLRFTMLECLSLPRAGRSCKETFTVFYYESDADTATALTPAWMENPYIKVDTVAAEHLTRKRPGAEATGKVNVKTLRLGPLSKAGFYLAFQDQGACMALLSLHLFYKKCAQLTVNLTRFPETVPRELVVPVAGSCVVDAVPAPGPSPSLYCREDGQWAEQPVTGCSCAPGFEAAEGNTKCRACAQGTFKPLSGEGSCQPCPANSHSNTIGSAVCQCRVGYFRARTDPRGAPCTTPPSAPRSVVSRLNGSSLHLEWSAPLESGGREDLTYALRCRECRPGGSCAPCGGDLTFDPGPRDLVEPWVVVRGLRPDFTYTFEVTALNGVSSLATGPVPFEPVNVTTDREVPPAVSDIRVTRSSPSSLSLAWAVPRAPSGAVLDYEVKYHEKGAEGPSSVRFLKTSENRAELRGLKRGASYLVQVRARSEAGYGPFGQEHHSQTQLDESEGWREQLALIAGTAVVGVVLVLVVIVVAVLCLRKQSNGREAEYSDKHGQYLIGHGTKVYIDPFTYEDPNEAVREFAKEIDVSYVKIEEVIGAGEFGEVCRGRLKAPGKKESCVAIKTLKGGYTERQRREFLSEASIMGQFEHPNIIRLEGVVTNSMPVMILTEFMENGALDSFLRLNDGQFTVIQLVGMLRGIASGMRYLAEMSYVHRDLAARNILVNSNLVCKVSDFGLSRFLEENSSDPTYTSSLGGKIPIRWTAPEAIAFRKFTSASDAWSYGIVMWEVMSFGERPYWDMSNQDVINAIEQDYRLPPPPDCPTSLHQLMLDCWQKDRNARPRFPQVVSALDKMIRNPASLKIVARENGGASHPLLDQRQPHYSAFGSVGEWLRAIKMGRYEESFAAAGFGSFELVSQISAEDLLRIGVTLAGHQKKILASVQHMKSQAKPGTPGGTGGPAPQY
Put shortly:
as §1

Assay [7] addresses T7, MAPK10 (JNK3) (Homo sapiens, UniProt P53779).
T7 construct: purchased ThermoFisher (SelectScreen, Z'-LYTE)
To be noted: 10 µM compound; ATP 100. The essentials:
as §1

Assay [8] has as its target T8, FLT3 (Homo sapiens, UniProt P36888).
T8 construct: purchased ThermoFisher (SelectScreen, Z'-LYTE)
T8 sequence (P36888 27-993): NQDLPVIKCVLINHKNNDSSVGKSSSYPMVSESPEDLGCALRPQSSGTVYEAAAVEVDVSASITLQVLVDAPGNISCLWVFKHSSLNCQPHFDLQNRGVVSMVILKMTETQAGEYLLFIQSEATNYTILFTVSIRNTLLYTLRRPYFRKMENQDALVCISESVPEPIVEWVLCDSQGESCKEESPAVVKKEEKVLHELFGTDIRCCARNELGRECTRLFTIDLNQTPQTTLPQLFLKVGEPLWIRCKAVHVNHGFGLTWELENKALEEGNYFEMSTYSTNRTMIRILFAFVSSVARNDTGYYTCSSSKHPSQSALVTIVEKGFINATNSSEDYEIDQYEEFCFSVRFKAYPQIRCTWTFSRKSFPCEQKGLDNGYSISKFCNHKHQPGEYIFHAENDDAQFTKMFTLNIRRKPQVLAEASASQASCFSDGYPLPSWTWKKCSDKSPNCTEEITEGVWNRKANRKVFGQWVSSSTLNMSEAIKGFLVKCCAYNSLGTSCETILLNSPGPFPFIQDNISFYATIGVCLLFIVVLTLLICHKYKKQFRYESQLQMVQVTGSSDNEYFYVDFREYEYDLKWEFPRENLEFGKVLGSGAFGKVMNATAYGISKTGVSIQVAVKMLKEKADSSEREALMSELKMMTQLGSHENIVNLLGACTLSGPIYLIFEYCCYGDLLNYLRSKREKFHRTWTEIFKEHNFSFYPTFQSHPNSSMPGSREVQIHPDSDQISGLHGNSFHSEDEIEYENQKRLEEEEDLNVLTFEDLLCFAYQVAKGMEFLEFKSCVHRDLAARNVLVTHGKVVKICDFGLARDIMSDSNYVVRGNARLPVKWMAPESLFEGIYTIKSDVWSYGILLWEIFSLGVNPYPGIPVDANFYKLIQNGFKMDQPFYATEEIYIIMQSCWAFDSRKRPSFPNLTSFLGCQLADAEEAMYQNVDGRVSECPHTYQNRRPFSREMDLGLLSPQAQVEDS
Put shortly: as §1

The inhibition is the change of the read-out against control, counted positive when it falls.

T4 sequence (Q16620 32-822): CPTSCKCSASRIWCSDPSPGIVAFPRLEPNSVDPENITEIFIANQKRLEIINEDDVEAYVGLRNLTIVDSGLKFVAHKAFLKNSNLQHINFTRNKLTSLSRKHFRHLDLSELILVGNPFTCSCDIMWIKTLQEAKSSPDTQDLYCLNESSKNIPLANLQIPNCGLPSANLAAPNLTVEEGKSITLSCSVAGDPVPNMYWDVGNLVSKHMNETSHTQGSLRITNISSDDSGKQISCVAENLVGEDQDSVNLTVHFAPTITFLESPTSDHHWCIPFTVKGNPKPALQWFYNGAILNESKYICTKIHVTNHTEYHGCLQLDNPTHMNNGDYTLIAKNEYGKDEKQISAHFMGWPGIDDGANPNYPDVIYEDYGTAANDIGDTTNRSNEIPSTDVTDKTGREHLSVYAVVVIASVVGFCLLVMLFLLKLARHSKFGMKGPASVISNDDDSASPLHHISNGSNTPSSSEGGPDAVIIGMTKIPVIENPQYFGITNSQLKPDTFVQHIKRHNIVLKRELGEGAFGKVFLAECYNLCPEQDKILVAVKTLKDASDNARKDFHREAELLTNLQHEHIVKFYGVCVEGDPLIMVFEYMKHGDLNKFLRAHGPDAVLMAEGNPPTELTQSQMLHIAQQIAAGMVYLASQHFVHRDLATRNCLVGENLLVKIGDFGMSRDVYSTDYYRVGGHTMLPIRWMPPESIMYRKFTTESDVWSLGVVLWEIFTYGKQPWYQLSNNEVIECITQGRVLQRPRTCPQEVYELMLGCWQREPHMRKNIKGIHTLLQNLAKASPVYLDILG
T3 sequence (P35968 20-1356): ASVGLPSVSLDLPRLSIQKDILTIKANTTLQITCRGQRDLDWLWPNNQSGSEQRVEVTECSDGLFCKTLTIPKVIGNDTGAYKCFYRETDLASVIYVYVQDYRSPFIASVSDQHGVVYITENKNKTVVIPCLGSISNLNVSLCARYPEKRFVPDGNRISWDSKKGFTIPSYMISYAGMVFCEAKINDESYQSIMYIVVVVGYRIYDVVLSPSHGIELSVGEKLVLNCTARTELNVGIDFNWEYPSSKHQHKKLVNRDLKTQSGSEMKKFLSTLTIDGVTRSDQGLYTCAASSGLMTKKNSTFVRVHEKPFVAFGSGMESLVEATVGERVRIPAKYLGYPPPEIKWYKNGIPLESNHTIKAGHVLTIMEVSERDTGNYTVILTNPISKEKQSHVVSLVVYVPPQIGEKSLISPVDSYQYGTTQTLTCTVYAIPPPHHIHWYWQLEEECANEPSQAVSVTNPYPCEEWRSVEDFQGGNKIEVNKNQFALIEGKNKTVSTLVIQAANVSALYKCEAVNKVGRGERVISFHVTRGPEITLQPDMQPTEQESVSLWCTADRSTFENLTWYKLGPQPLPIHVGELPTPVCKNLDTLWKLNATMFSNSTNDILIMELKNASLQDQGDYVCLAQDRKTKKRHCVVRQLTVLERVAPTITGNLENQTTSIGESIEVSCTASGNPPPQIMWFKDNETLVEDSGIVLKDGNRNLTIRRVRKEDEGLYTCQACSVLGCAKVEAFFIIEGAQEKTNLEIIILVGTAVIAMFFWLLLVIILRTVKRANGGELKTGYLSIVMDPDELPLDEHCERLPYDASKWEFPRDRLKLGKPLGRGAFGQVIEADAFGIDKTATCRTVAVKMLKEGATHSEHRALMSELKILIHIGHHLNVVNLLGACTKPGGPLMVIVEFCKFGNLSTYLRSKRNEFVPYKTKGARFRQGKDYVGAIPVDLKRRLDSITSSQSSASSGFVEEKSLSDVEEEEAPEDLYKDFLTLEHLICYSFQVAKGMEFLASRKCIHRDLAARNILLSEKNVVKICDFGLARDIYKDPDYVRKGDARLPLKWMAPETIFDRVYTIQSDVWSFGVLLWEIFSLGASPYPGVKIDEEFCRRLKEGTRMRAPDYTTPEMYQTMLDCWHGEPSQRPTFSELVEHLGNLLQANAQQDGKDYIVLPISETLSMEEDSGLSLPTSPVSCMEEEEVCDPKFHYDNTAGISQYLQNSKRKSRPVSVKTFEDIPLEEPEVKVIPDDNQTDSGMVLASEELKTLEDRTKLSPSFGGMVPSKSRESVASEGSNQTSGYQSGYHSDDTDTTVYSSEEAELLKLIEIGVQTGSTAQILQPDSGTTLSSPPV
T2 sequence (P11309 whole entry): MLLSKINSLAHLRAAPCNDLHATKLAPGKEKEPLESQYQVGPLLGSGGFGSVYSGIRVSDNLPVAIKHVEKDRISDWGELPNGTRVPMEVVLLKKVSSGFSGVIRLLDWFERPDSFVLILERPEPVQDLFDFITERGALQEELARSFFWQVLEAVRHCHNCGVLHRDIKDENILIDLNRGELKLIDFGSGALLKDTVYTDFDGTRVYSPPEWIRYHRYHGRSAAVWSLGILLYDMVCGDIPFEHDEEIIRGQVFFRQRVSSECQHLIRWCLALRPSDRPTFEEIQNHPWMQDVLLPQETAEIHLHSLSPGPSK
T7 sequence (P53779 whole entry): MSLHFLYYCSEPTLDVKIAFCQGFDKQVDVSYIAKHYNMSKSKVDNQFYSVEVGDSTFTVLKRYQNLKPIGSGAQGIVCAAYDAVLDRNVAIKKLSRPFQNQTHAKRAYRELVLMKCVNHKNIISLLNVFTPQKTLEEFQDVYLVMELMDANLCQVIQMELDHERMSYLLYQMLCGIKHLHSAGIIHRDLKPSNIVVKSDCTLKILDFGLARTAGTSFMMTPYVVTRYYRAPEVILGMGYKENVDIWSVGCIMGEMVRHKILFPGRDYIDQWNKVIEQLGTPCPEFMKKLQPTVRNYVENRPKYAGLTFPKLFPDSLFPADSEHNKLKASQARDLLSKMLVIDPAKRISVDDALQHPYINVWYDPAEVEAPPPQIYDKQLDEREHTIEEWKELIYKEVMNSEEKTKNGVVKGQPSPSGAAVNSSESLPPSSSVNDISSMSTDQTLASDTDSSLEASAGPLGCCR
T1 sequence (Q96RG2 whole entry): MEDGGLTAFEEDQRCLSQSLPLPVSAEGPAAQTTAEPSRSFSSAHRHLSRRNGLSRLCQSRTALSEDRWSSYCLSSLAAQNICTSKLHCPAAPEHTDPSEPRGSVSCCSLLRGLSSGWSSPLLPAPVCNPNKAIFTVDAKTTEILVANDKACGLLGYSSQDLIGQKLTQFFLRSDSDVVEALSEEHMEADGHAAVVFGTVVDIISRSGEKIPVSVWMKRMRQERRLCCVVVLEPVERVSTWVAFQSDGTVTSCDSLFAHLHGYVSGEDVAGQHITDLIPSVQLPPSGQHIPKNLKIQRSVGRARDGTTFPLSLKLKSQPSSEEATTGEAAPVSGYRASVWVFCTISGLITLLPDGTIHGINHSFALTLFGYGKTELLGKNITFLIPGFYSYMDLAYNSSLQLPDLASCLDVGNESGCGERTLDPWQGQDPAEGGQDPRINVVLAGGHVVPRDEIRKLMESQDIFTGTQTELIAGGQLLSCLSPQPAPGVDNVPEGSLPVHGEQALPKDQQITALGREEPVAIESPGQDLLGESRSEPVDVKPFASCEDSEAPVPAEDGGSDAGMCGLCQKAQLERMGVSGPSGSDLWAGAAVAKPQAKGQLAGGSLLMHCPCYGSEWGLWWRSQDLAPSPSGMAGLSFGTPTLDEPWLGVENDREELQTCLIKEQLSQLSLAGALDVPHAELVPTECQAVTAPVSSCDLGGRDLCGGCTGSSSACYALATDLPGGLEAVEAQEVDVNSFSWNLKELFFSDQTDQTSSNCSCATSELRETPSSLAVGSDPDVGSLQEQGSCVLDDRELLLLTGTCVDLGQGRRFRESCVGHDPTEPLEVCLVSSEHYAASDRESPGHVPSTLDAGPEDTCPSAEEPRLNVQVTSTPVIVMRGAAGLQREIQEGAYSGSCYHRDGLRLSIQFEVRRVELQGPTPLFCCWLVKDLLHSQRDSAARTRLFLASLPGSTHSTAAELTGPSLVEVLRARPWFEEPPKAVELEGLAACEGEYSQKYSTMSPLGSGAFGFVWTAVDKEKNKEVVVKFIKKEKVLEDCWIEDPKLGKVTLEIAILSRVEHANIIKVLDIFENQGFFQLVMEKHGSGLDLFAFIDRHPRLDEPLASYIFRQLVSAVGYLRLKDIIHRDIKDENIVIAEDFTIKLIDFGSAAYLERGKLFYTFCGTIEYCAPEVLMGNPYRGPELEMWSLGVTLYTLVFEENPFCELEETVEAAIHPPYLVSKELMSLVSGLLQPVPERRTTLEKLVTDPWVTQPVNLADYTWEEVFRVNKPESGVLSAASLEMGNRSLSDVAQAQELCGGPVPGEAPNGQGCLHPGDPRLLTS

In the case of `Cc1ncc(-c2nc(Nc3ccc(C(=O)NCCN4CCCCC4)cc3)ncc2F)n1C(C)C` [Compound 3], the inhibition at 10 µM came out at 30% in assay [1]; 65% in assay [2]; 100% in assay [3]; 87% in assay [4]; 88% in assay [5]; 83% in assay [6]. Moreover, the inhibition at 10 µM in assay [7] was determined as 77%; in assay [8], 101%.
As to `Cc1cc(Nc2nc(N)nn2C(=O)NC(C)C)ccc1Cl` [Compound 5], the inhibition at 10 µM is 1.44% in assay [1]; -1.79% in assay [2]; 59% in assay [3]; 29% in assay [4]; 10% in assay [5]; 17% in assay [6]. The inhibition at 10 µM in assay [7] came to 2.76%; in assay [8], 55%.
In the case of “XMD8-92 [Compound 2, reference compound]”, the “PASK % Inhibition” value in assay [1] (10 µM compound, ATP Km app) worked out at 49%. Moreover, the “PIM1 % Inhibition” value in assay [2] (10 µM compound, ATP Km app) is on record as 35%. Also, the “KDR (VEGFR2) % Inhibition” value in assay [3] (10 µM compound, ATP Km app) was determined as 81%. Moreover, the “NTRK2 (TRKB) % Inhibition” value in assay [4] (10 µM compound, ATP Km app) is given as 81%. The “ITK % Inhibition” value in assay [5] (10 µM compound, ATP Km app) turned out to be 18%. Also, the “EPHB4 % Inhibition” value in assay [6] (10 µM compound, ATP Km app) was found to be 29%. In addition, the “MAPK10 (JNK3) % Inhibition” value in assay [7] is 9%. In addition, the “FLT3 % Inhibition” value in assay [8] (10 µM compound, ATP Km app) was 90%.

For the origin of these results see publication PMC4854315, “Discovery of a novel allosteric inhibitor-binding site in ERK5: comparison with the canonical kinase hinge ATP-binding site” (Acta Crystallographica. Section D, Structural Biology, 2016).
